From US20110294732A1, “ERYTHROPOLETIN COMPLEMENTATION OR REPLACEMENT” (Universite De Strasbourg, priority 2007, published 2011)
Several values for one entry are separate records, joined by “and”; a condition that tells them apart may be missing. Equal values may be shown once. Entries after “also recorded” stand apart in the source; their conditions may differ.

How the values were obtained:
murine hemoglobin = murine hemoglobin (Mus musculus, UniProt P02088); assay: In vitro P50 shift of hemoglobin mixed with ITPP (HEMOX analyzer); format: biochemical
Method: Myo-ITPP was tested for its ability to induce a decrease of the O2-affinity of hemoglobin measured as a shift of the P50 value (P50 at 50% saturation of hemoglobin). The observed shifts to higher PO2 were up to 250% in murine hemoglobin and up to 40% in murine whole blood. This finding was particularly striking because the shifts occurred concomitantly in vivo with a decrease in the number of RBCs and hematocrit; such hemodilution is recognized as a positive indicator in many circumstances because it is diagnostic for downregulation of RBC production where the body's oxygen needs are being met efficiently. Additional support came from enhancement of the effort capacity of test animals by up to 100% following ITPP administration, which confirmed that oxygen was being delivered efficiently to the working muscle, and only to that muscle.
(§1) For the in vitro experiments, ITPP was dissolved in deionized water, pH was adjusted to pH 7 and, for incubation with whole blood, the osmolarity of the ITPP solutions was adjusted with glucose to 270-297 mOsM. Mixtures of hemoglobin and ITPP were measured with a HEMOX analyzer (PD Marketing, London) immediately after mixing. Red blood cells were incubated with ITPP for 1 hour at 37° C. Following incubation, the cells were washed 3 times with Bis-Tris-buffer (pH=7.0) and then used for P50 measurement.

whole blood [1] = assay: In vitro P50 of whole blood after incubation with effector, human; format: cell-based; details: 60 mM
Method: as §1
(§2) ITPP was tested along with a cholesteroyl derivative (here designated as kf96) (both at 60 mM) as effectors for P50 shifts in whole blood of three species: human, mouse and pig. As usual, pHs for the compound-solutions were adjusted to ca. 7.0, osmolarities for both solutions were determined (325-373 mOsM) prior to treatment with the effectors, and whole blood volumes at 1:1 ratios were incubated.

whole blood [2] = assay: In vitro P50 of whole blood after incubation with effector, pig; format: cell-based; details: 60 mM
Method: as §1, §2

RBCs = assay: Lysis of RBCs after in vitro incubation with effector; format: cell-based, human, mouse and pig
[3] = Blood counts of piglets after intravenous injection; format: in vivo; details: iv 1 g/kg
Excerpt: Blood from 2 piglets that received ITPP (1 g/kg body weight) was collected before injection, 2 hrs after, and daily over a period of 14 days after injection, in order to assess any differences in the blood counts of treated and non-treated piglets.
(§3) Blood was taken from the heart of the dead animals for determination of blood counts as well as the amount of sodium, potassium and calcium in the sera. All numbers of blood cells (hematocrit, white blood cells etc.) were halved. The amount of potassium and calcium was normal, while sodium was doubled (before injection: 120-140 mmol/L; after injection: 245 mmol/L). Apparently, the large amount of sodium in that form of ITPP (6 Na^+/molecule) caused the death of the animals. It appears that up to 1 g ITPP per kg body weight can be injected intravenously, (if injected slowly) without harmful effects for the animals. […] A second piglet was also injected with ITPP at the 1 g/kg concentration, after 2 piglets had died after iv injection of 1.2 g ITPP (or even more) per kg body weight. […] Starting with day 3 after injection of the allosteric effector, the number of reticulocytes increased by about 3% for a period of 14 days.

[4] = Tolerability and toxicity of intravenous injection in piglets; format: in vivo
Method: An in vivo experiment was performed on one 8 week-old normal piglet (body weight: 17 kg). The piglet was anesthesized with 5% Isoflurane, 0.7 L/min N2O and 2.0 L/min O2 for 20-30 minutes, when ITPP was injected, or blood was taken from the ear vein, respectively. The compound injected intravenous at a concentration of 27 g ITPP/100 ml water (volume injected: 63 ml, pH 6.5, containing 17 g ITPP=1 g/l kg body weight) was not harmful to the animal, when injected into the piglet's ear vein over at least 10 minutes.
Intravenous injection of 1 g ITPP/kg body weight caused a significant right shift of the P50-value (up to 20%) in porcine RBCs. An almost saturated ITPP solution, pH 6.7, was injected intravenously into two piglets (both of ca. 18 kg body weight) (27 g ITPP/100 ml=1.5 g/kg body weight) over 20 minutes.
as §3

circulating RBCs = assay: P50 shift of circulating RBCs after ip injection; format: in vivo, C57B1/6 mice; details: for P50 Shift %, 2 h, Mean +/- SD / P50 Shift %, 24 h, Mean +/- SD / P50 Shift %, 2 h / P50 Shift %, 24 h: ip; for P50 Shift %, 2 h, Mean +/- SD / P50 Shift %, 24 h, Mean +/- SD: 5 animals; for P50 Shift %, 2 h / P50 Shift %, 24 h: single animal
Method: Blood from C57B1/6 mice collected 2 hrs and 1 day after injection of 45, 60, 120 and 150 mM solutions of ITPP was measured for P50-shifts as reported. […] No animal died or seemed to suffer from the compound.

[5] = Hematocrit after IP injection; format: in vivo; details: 6 days after IP injection of 200 μl of a 60 mM solution; 40% on day 0
Method: It appears, based upon the preliminary data reported, that an inverse relationship exists between the number of RBCs and shift of their P50 value (see FIG. 1). The basal value of the RBC count is restored, once ΔP50 becomes 0%, 12 days after ingestion of ITPP. The hematocrit drops from 40% on day 0 (before ITPP administration) to 32%, 6 days after IP injection of 200 μl of a 60 mM ITPP solution.

[6] = Blood counts of mice after oral ingestion; format: in vivo; details: single mouse, oral in water for 4 days; day 0 count 8.9-11.8

Chain of murine hemoglobin (P02088 2-147 limits assumed): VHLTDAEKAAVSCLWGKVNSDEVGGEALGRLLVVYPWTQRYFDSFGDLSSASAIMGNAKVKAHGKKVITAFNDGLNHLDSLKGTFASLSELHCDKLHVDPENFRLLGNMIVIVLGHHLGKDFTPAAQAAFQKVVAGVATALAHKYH
Chain of murine hemoglobin (P01942 2-142 partner limits assumed): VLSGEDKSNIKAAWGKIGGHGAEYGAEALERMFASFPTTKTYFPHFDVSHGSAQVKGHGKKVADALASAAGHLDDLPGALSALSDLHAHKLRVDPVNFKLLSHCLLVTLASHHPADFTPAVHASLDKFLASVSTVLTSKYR

O=P1(O)OC2C3OP(=O)(O)OP(=O)(O)OC3C3OP(=O)(O)OP(=O)(O)OC3C2OP(=O)(O)O1 (centres unmarked) [ITPP, inositol-tripyrophosphate]
shift of the P50 value to higher PO2 (murine hemoglobin): up to 250%
P50 increase, % (ITPP) (whole blood [1]): 39%
P50 mm Hg effector ITPP (whole blood [1]; control 22.1): 30.8 mm Hg
P50 increase, % (ITPP) (whole blood [2]; pig whole blood): 40%
P50 mm Hg effector ITPP (whole blood [2]; pig whole blood, control 32.2): 45.2 mm Hg
right shift in the Hb-O2 dissociation curve, strongest shift (whole blood [2]; summary over human, pig and mouse whole blood): up to 40%
lysis of RBCs (RBCs): never occurred; also recorded: no lysis of RBCs was observed
number of other cells such as white blood cells [3]: No major differences
reticulocytes, increasing numbers ([3]; 5-14 days after injection, day 14): up to 3.0%
reticulocyte population after decrease ([3]; first 3 days (24 to 72 hrs) after injection, from 1.4% / 1.5%): 0.5%
hematocrit and number of RBCs ([3]; first days after injection): slight decrease; also recorded: decrease in hematocrit was observed
pathological changes of the blood counts ([3]; injected slowly): did not show any pathological changes
increase of the number of reticulocytes ([3]; starting with day 3, for a period of 14 days): about 3%
harmfulness of intravenous injection ([4]; 1 g/kg body weight, injected slowly over at least 10 minutes): not harmful
amount of potassium and calcium in the sera ([4]; after lethal iv injection): normal
sodium in the sera after injection ([4]; after lethal iv injection, before injection 120-140): 245 mmol/L
numbers of blood cells (hematocrit, white blood cells etc.) in the dead animals ([4]; heart blood after lethal iv injection): halved
amount that can be injected intravenously without harmful effects ([4]; if injected slowly): up to 1 g ITPP per kg body weight
mortality ([4]; iv, almost saturated solution 27 g/100 ml, intended 1.5 g/kg over 20 minutes, received <1.3 g/kg): Both piglets died; also recorded: killed the animals
time at which the P50 shift appears after inoculation (circulating RBCs; ip inoculation): 2 h
P50 Shift %, 2 h, Mean +/- SD (circulating RBCs; 45 mM): 11.8 +/− 1.16%
P50 Shift %, 24 h, Mean +/- SD (circulating RBCs; 45 mM): 13.6 +/− 1.02%
P50 Shift %, 2 h (circulating RBCs; 45 mM): 10% and 13% (2×) and 12% and 11%
P50 Shift %, 24 h (circulating RBCs; 45 mM): 8%
P50 Shift %, 2 h, Mean +/- SD (circulating RBCs; 60 mM): 16.9 +/− 3.48%
P50 Shift %, 24 h, Mean +/- SD (circulating RBCs; 60 mM): 17.2 +/− 2.1%
P50 Shift %, 2 h (circulating RBCs; 60 mM): 12% and 14% and 17% and 21% and 20.5%
P50 Shift %, 24 h (circulating RBCs; 60 mM): 14% and 16% and 17% and 20% and 19%
P50 Shift %, 2 h, Mean +/- SD (circulating RBCs; 120 mM): 26.0 +/− 2.28%
P50 Shift %, 24 h, Mean +/- SD (circulating RBCs; 120 mM): 24.8 +/− 2.7%
P50 Shift %, 2 h (circulating RBCs; 120 mM): 28% and 29% and 24% and 26% and 23%
P50 Shift %, 24 h (circulating RBCs; 120 mM): 28% (2×) and 22% (2×) and 24%
P50 Shift %, 2 h, Mean +/- SD (circulating RBCs; 150 mM): 27.0 +/− 1.78%
P50 Shift %, 24 h, Mean +/- SD (circulating RBCs; 150 mM): 25.8 +/− 2.78%
P50 Shift %, 2 h (circulating RBCs; 150 mM): 26% (2×) and 28% and 30% and 25%
P50 Shift %, 24 h (circulating RBCs; 150 mM): 25% and 26% and 31% and 24% and 23%
hematocrit [5]: 32%
RBC × 10^6/mm^3 [6]: 9.35 10^6/mm^3 and 8.60 10^6/mm^3 and 8.95 10^6/mm^3 (2×) and 8.88 10^6/mm^3 and 8.70 10^6/mm^3 and 8.73 10^6/mm^3 and 7.65 10^6/mm^3 and 7.80 10^6/mm^3
